Results published in patent US20210070748A1, “INHIBITORS OF BRUTONS TYROSINE KINASE” (Pharmacyclics LLC, priority 2015, published 2021).

How the values were obtained:
Assay type in all cases: biochemical
[1] = biological target: T1, JAK3 (Homo sapiens, UniProt P52333); test: Inhibition of a panel of kinases, in vitro HotSpot kinase assay: JAK3; settings: Table 15, C compounds; 1 μM ATP; read-out: IC50 JAK3
T1 sequence (P52333 1-1124): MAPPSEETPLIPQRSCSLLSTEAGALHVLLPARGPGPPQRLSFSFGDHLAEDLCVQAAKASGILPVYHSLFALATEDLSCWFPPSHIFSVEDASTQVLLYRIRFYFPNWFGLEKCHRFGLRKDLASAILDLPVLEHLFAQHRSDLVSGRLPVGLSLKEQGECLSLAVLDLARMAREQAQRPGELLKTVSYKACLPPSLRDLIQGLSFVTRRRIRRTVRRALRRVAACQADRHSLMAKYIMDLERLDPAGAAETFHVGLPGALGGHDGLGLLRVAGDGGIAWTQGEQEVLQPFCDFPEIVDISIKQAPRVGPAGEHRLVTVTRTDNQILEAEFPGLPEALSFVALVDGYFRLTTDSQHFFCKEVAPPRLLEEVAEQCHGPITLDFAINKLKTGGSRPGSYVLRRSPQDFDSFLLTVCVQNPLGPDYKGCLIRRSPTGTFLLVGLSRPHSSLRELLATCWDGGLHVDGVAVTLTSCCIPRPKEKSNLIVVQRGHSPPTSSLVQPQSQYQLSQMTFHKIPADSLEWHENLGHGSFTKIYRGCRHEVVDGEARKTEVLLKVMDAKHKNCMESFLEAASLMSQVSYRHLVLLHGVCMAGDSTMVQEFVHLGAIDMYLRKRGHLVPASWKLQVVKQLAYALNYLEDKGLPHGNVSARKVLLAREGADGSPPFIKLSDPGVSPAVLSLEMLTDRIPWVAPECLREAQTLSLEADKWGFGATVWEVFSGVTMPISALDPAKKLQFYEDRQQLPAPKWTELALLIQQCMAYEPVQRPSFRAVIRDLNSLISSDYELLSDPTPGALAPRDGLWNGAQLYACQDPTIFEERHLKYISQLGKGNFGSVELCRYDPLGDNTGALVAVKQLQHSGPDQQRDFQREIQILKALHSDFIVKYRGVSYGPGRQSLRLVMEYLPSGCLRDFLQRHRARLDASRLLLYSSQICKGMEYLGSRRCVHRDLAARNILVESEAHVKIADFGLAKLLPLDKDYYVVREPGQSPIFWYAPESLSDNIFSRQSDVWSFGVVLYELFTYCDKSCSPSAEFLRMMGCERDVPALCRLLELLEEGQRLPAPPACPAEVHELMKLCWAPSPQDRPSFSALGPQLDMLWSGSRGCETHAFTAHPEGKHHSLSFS

[2] = biological target: LCK (Homo sapiens, UniProt P06239); test: Inhibition of a panel of kinases, in vitro HotSpot kinase assay: LCK; settings: Table 15, C compounds; 1 μM ATP; read-out: IC50 LCK
LCK, sequence (P06239 whole entry): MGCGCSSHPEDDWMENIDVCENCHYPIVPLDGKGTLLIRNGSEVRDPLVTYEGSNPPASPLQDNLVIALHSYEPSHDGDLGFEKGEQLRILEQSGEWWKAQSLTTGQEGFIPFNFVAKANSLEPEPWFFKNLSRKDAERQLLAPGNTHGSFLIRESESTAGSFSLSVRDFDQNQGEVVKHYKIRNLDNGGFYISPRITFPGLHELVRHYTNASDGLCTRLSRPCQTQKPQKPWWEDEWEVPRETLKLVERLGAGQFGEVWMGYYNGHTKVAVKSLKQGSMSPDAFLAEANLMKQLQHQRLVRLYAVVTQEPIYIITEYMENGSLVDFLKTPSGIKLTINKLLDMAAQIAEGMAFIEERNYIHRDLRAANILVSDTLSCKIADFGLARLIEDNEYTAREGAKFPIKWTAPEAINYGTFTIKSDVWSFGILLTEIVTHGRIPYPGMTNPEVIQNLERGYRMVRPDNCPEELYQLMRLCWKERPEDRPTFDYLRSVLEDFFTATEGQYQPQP

[3] = biological target: T2, TEC (Homo sapiens, UniProt P42680); test: Inhibition of a panel of kinases, in vitro HotSpot kinase assay: TEC; settings: Table 15, C compounds; 1 μM ATP
T2 sequence (P42680 1-631): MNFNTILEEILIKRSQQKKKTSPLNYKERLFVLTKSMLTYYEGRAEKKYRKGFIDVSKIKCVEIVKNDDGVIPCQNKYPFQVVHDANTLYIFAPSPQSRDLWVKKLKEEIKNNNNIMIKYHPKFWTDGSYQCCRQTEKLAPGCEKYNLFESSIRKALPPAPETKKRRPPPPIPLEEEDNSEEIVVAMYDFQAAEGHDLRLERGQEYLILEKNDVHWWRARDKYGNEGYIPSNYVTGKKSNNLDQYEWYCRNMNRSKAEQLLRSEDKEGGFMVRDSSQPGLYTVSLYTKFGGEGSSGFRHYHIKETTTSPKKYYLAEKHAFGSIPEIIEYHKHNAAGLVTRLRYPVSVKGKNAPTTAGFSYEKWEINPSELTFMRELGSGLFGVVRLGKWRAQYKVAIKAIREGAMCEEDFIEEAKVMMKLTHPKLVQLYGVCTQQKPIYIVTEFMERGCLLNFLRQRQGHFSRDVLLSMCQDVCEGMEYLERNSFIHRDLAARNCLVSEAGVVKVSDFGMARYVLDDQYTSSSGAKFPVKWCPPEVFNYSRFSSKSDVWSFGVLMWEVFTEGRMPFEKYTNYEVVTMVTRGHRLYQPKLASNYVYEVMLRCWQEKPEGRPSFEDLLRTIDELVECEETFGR
Protocol: (§1) The degree of inhibition of a panel of kinases is determined using the in vitro HotSpot kinase assay (purified enzymes, ^33P-ATP, an appropriate substrate and 1 μM ATP).

[4] = biological target: T3, TXK (Homo sapiens, UniProt P42681); test: Inhibition of a panel of kinases, in vitro HotSpot kinase assay: TXK; settings: Table 15, C compounds; 1 μM ATP
T3 sequence (P42681 1-527): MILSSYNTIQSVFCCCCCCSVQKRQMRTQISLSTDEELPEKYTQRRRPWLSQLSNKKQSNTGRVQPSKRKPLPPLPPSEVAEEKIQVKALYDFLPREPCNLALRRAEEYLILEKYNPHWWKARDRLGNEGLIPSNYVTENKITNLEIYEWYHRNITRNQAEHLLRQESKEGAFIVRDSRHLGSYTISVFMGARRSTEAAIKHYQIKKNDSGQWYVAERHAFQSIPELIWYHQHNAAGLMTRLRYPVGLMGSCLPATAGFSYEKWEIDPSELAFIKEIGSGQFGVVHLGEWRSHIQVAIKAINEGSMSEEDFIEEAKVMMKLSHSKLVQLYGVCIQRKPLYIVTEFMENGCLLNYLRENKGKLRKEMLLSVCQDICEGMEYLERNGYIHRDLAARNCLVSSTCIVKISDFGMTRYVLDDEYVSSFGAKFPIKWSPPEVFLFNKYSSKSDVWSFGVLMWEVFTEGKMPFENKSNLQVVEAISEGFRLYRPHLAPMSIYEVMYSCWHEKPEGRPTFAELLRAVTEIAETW
Protocol: as §1

Compound | IC50 [1] [nM] | IC50 [2] [nM] | IC50 [3] [nM] | IC50 [4] [nM]
C=CC(=O)N1CCC[C@@H](N(C)c2cnc(C(N)=O)c(Nc3ccc(C(C)C)cc3)n2)C1 [Example C-42, (R)-5-((1-acryloylpiperidin-3-yl)(methyl)amino)-3-(4-isopropylphenylamino) pyrazine-2-carboxamide] | 10 to 100 | 1000 to 10000 | ≤ 10 | ≤ 10
C=CC(=O)N1CCC[C@@H](N(C)c2cnc(C(N)=O)c(Nc3ccc(C4(C)CCN(C5CCCC5)CC4)cc3)n2)C1 [Example C-44, (R)-5-((1-acryloylpiperidin-3-yl)(methyl)amino)-3-(4-(1-cyclopentyl-4-methylpiperidin-4-yl)phenylamino) pyrazine-2-carboxamide] | < 10 | < 10 | ≤ 10 | ≤ 10
C=CC(=O)N1CCC[C@@H](Nc2nnc(C(N)=O)c(Nc3ccc(C4CCN(C(=O)CC)CC4)cc3)n2)C1 [Example C-57, (R)-3-(1-acryloylpiperidin-3-ylamino)-5-(4-(1-propionylpiperidin-4-yl)phenylamino)-1,2,4-triazine-6-carboxamide] | < 10 | 10 to 100 | ≤ 10 | ≤ 10
C=CC(=O)N1CCC[C@@H](Nc2cnc(C(N)=O)c(Nc3ccc(C4CCN(C5CCCC5)CC4)cc3)n2)C1 [Example C-84, (R)-5-(1-acryloylpiperidin-3-ylamino)-3-(4-(1-cyclopentylpiperidin-4-yl)phenylamino)pyrazine-2-carboxamide] | < 10 | 10 to 100 | ≤ 10 | ≤ 10
C=CC(=O)N1CC[C@@H](N(C)c2cnc(C(N)=O)c(Nc3ccc(C4CCN(C5CCCC5)CC4)cc3)n2)C1 [Example C-85, (R)-5-((1-acryloylpyrrolidin-3-yl)(methyl)amino)-3-(4-(1-cyclopentylpiperidin-4-yl)phenylamino) pyrazine-2-carboxamide] | < 10 | 100 to 1000 | ≤ 10 | ≤ 10

Second part, the compound after the results:

IC50 [1] [nM] | IC50 [2] [nM] | IC50 [3] [nM] | IC50 [4] [nM] | Compound
< 10 | 1000 to 10000 | ≤ 10 | ≤ 10 | C=CC(=O)N1CC[C@@H](N(C)c2nnc(C(N)=O)c(Nc3ccc(C(C)C)cc3)n2)C1 [Example C-41, (R)-3-((1-acryloylpyrrolidin-3-yl)(methyl)amino)-5-(4-isopropylphenylamino)-1,2,4-triazine-6-carboxamide]
< 10 | 10 to 100 | ≤ 10 | ≤ 10 | C=CC(=O)N1CCC[C@@H](Nc2nnc(C(N)=O)c(Nc3cc(C)ns3)n2)C1 [Example C-56, (R)-3-(1-acryloylpiperidin-3-ylamino)-5-(3-methylisothiazol-5-ylamino)-1,2,4-triazine-6-carboxamide]
